Test results published in PubChem BioAssay (NCI).
“And” between values parts separate entries of the source, which are not always exact repeats. Identical values can stand only once.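 These data come from cells grown in 96-well plates and exposed to compound for 48 hours at five concentrations. Abbreviation: GI50, concentration required for 50% inhibition of growth. Definition used: TGI = concentration required for complete inhibition of growth.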

Legend:
Experiment in all cases: DTP human tumour cell line panel, 48 h
[1] = tested on: TK-10 renal
[2] = tested on: RXF 393 renal
[3] = tested on: OVCAR-3 ovarian
[4] = tested on: SK-MEL-28 melanoma
[5] = tested on: SF-268 CNS
[6] = tested on: SN12C renal
[7] = tested on: CCRF-CEM leukemia
[8] = tested on: K-562 leukemia
[9] = tested on: MALME-3M melanoma
[10] = tested on: UO-31 renal

Row | SMILES | TGI [1] | TGI [2] | TGI [3] | TGI [4] | TGI [5] | TGI [6] [µM] | TGI [7] [µM] | TGI [8] [µM] | TGI [9] | TGI [10] | GI50 [1] | GI50 [2] [µM] | GI50 [3] | GI50 [4] | GI50 [5] [µM] | GI50 [6] [µM] | GI50 [7] | GI50 [8] [µM] | GI50 [9] [µM] | GI50 [10]
1 | COc1ccc(OC/C(N=Cc2cccnc2)=N/NC(=O)c2ccncc2)cc1 | > 100 µM | > 100 µM | > 100 µM | > 100 µM | > 100 µM | > 100 | > 100 | > 100 | > 100 µM |  |  |  |  |  |  |  |  |  |  | 
2 | FC1(F)SC2CCCCCCCCCCC2C1(F)F (stereo not drawn) | > 100 µM | 54 µM | 39.1 µM | 71 µM | > 100 µM |  | > 100 | 35.3 | 59.6 µM | > 100 µM |  |  |  |  |  |  |  |  |  | 
3 | COc1cc(/C=C2\CCCC3=C2N=C2SC=NN2C3c2cc(OC)c(OC)c(OC)c2)cc(OC)c1OC (stereo not drawn) | 47.6 µM | 4.74 µM | 9.32 µM | 5.26 µM | > 100 µM | 7.11 | > 100 | > 100 | 7.09 µM |  | 4.19 µM | 2.2 | 3.02 µM | 2.07 µM | 3.48 | 2.39 | 3.17 µM | 3.08 | 2.99 | 
4 | CCOC(=O)C(/C=N/C(N)=S)=C(/O)c1ccccc1 | > 100 µM | > 100 µM | > 100 µM | > 100 µM | > 100 µM | > 100 |  |  |  | > 100 µM |  |  |  |  |  |  |  |  |  | 
5 | Cc1ccc(S(=O)(=O)N/N=C2/C3CC4CCC2C4C3)cc1 (stereo not drawn) | > 100 µM | > 100 µM | > 100 µM | > 100 µM | > 100 µM | > 100 |  |  | > 100 µM | > 100 µM |  |  |  |  |  |  |  |  |  | 
6 | Cc1cc(NS(=O)(=O)c2ccc(N=Nc3c(Nc4ccccc4)nn(-c4ccc(S(=O)(=O)Nc5ccncn5)cc4)c3C)cc2)no1 | > 100 µM |  | > 100 µM | > 100 µM |  | > 100 | > 100 | > 100 | > 100 µM | > 100 µM |  |  |  |  |  |  |  |  |  | 
7 | COC(=O)Cc1c(-c2c(CC(=O)OC)c3ccccc3n2C2OC(COC3OC(COC(C)=O)C(OC(C)=O)C(OC(C)=O)C3OC(C)=O)C(O)C(O)C2O)[nH]c2ccccc12 (stereo not drawn) | > 100 µM |  | > 100 µM | > 100 µM |  | > 100 | > 100 | > 100 |  | > 100 µM |  |  |  |  |  |  |  |  |  | 
8 | COC(=O)/C=C/[C@H]1[C@H](C)N1S(=O)(=O)c1ccc(C)cc1 (stereo partly drawn) | > 100 µM | > 100 µM | > 100 µM | > 100 µM | > 100 µM | > 100 | > 100 | > 100 | > 100 µM |  |  |  |  |  |  |  |  |  |  | 
9 | COc1ccc([C@H]2C=C(c3cc(F)c(Cl)cc3Cl)N=c3s/c(=C\c4ccc(-c5ccc(Cl)cc5Cl)o4)c(=O)n32)cc1 | > 100 µM | > 100 µM |  | > 100 µM | > 100 µM | > 100 |  | > 100 | > 100 µM | > 100 µM |  |  |  |  |  |  |  |  |  | 
10 | CSc1nc(NC2OC(CO)C(O)C(O)C2O)c(N)c(=O)[nH]1 (stereo not drawn) |  | > 100 µM | > 100 µM | > 100 µM | > 100 µM | > 100 | > 100 | > 100 | > 100 µM | > 100 µM |  |  |  |  |  |  |  |  |  | 
11 | O=C(O)Cc1ccc(-n2nnc3c(=O)[nH][nH]c(=O)c32)cc1 | > 100 µM |  | > 100 µM | > 100 µM |  | > 100 | > 100 | > 100 | > 100 µM | > 100 µM |  |  |  |  |  |  |  |  |  | 
12 | COC(=O)C(Cc1cc(OC)c(OC)c(OC)c1)(NC(=O)c1ccccc1)P(=O)(OC)OC (stereo not drawn) | > 100 µM | > 100 µM |  | > 100 µM | > 100 µM | > 100 | > 100 | > 100 |  | > 100 µM |  |  |  |  |  |  |  |  |  | 
13 | CC(C)(C)OC(=O)/C=C/[C@@H](CCC(=O)/C=C/[C@H](/C=C\CCCC(=O)O)NC1(c2ccccc2)c2ccccc2-c2ccccc21)O[Si](C)(C)C(C)(C)C | 52 µM | 24.5 µM | 32.9 µM | 69.6 µM | 35.2 µM | 32.4 | > 100 | > 100 |  | 29.8 µM |  |  |  |  |  |  |  |  |  | 
14 | COc1ccc(-c2c(C#N)c(N)n(C3OC(COC(C)=O)C(OC(C)=O)C(OC(C)=O)C3OC(C)=O)c(=S)c2C#N)cc1 (stereo not drawn) | > 100 µM and 49.3 µM | 84.6 µM and 72.2 µM | > 100 µM and 32.3 µM | > 100 µM and 32.7 µM | > 100 µM and 88.3 µM | > 100 | > 100 |  | > 100 µM and 75.7 µM | > 100 µM and 38.9 µM | 50.5 µM and 21.9 µM |  | 44.4 µM and 15.1 µM | 91.5 µM and 18.6 µM |  |  | > 100 µM and 46.5 µM |  |  | 42.4 µM and 16.7 µM
15 | C[C@H](OC(=O)/C=C/c1ccc(O)c(O)c1)[C@H](C)OC(=O)/C=C/c1ccc(O)c(O)c1 | 34.2 µM | 28.5 µM | 14.8 µM | 28.6 µM | 34.5 µM | 34 |  | > 100 | 31.9 µM | 21.9 µM |  |  |  |  |  |  |  |  |  | 
16 | COc1ccc(-c2nc3ccccc3c(=O)[nH]2)cc1OC |  | 68.1 µM | > 100 µM |  | 60 µM | > 100 | > 100 | > 100 | > 100 µM | > 100 µM |  |  |  |  |  |  |  |  |  | 
17 | COc1cc(CNC(=O)CCCCCCCCCCSC#N)ccc1O | 44 µM | 21.9 µM | 26.2 µM | 21.1 µM |  |  | 62.9 | 88.5 | > 100 µM | 21.9 µM |  |  |  |  |  |  |  |  |  | 
18 | Cc1c(OCc2cccc3ccccc23)ccc2c(=O)cc(S)oc12 | > 100 µM | > 100 µM | 53.6 µM | > 100 µM | > 100 µM | > 100 | 54.1 | > 100 |  | > 100 µM |  |  |  |  |  |  |  |  |  | 
19 | COc1ccccc1N1C(=O)/C(=C\c2ccccc2)SC1c1cc(OC)c(OC)c(OC)c1 (stereo not drawn) | > 100 µM |  |  | > 100 µM | > 100 µM | 87.9 |  | > 100 | > 100 µM | > 100 µM |  |  |  |  |  |  |  |  |  | 
20 | Nc1nc(=O)n(C2CC(O)C(CO)O2)c2nc(-c3ccc(-c4ccccc4)cc3)cnc12 (stereo not drawn) | > 100 µM | > 100 µM |  |  | 79 µM | > 100 | > 100 | > 100 | > 100 µM | > 100 µM |  |  |  |  |  |  |  |  |  | 
21 | O=c1[nH]nc(-c2ccccc2)c2[nH]c3c(c12)CCCc1ccccc1-3 | 86.4 µM | 36 µM | 66.3 µM |  | > 100 µM | 35.8 | 47.2 | 94.8 | 30.9 µM | 34.7 µM |  |  |  |  |  |  |  |  |  | 
22 | O=[N+]([O-])c1cnccc1-n1nnc2ccccc21 |  | 46.8 µM | > 31.6 µM | 48.4 µM | > 62.3 µM | 37.7 | > 86.5 | > 100 | 45.5 µM | > 86.2 µM |  |  |  |  |  |  |  |  |  | 
